From PubChem BioAssay AID1912 (The Scripps Research Institute Molecular Screening Center, 2009)
The source made the active and inactive calls. The rule behind the calls is not given here.

What follows are compounds tested against Luciferin 4-monooxygenase (Photinus pyralis) (UniProt P08659) (assay: native FLuc inhibition dose response – biochemical, luminescence, artefact control for HSP90 inhibitor project (AID 1912)). Conditions: purified firefly luciferase.
Chain of Luciferin 4-monooxygenase (Photinus pyralis) (P08659 whole entry, looked up): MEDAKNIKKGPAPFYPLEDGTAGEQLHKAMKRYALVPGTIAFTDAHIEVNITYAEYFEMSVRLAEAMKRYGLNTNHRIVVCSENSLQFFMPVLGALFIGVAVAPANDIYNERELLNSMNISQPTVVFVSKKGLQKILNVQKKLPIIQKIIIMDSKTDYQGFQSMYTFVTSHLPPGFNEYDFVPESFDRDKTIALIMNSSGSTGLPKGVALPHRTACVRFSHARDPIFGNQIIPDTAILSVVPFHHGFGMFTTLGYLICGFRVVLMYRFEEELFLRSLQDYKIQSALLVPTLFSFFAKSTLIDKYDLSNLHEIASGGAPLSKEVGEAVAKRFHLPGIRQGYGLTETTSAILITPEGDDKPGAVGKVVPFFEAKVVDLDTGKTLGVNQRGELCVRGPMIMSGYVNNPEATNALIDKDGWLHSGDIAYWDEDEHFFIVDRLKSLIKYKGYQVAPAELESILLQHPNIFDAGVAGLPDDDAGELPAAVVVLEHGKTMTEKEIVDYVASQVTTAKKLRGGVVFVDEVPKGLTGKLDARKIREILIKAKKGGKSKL

IC50, inactive:
CCOC(=O)c1ccc(-c2ccc(C=O)o2)cc1 > 60 µM, O=S(=O)(Cc1ccccc1)N(O)c1ccccc1 > 60 µM, Cc1ccc2oc(=O)c(/C=C(\O)c3cccs3)nc2c1 > 60 µM, CCOC(=O)c1csc(NC(=O)c2cc3ccccc3o2)n1 > 60 µM, O=C(O)c1cccc(NC(=S)NC(NC(=O)c2cccc([N+](=O)[O-])c2)C(Cl)(Cl)Cl)c1 (stereo not given) > 60 µM, CN(C)c1ccc(C2Nc3cccc4cccc(c34)N2)cc1 > 60 µM, Cc1nc2ccc(C(=O)O)cc2[nH]1 > 60 µM, Cc1cc(C)c2nc(N3CCC(C(=O)NCCCN4CC(C)CC(C)C4)CC3)sc2c1 (stereo not given) > 60 µM, Cc1ccccc1NC1=C/C(=N\S(=O)(=O)c2cccs2)c2ccccc2C1=O > 20 µM, O=C(Cc1ccccc1)N1CCN(S(=O)(=O)c2ccc([N+](=O)[O-])cc2)CC1 > 60 µM, Cc1ccccc1NC1=C/C(=N\S(=O)(=O)c2ccc(C(=O)O)cc2)c2ccccc2C1=O, O=C1c2cc(F)ccc2-n2c1nc1ccccc1c2=O > 60 µM, COC(=O)c1cc(C)nc2c1C(=O)C(=O)C=C2N1CCOCC1 > 20 µM, CCC(=O)Nc1ccccc1C(=O)OCC(=O)c1ccccc1 > 60 µM, CC(=O)Nc1ccccc1OCC(=O)c1cc(C)n(Cc2cccs2)c1C > 60 µM, CCc1ccc(OCc2ccc(C(=O)OC)o2)cc1 > 60 µM, Cc1nc(NC(=O)c2ccc(F)cc2)sc1C(=O)Nc1ccc2c(c1)CCC2 > 60 µM, CNC(=S)N/N=C/c1ccc(-c2ccc(C(=O)O)cc2)o1 > 60 µM, CCOc1ccc(-c2nc(CN(Cc3ccccc3)C[C@@H]3CCC(=O)N3)c(C)o2)cc1 > 60 µM, CCOC(=O)C1CCCN(C(=O)c2sc3nc(-c4ccc(OC)cc4)cn3c2C)C1 (stereo not given) > 60 µM, Cc1nc(NC(=O)c2cccc(Cl)c2)sc1C(=O)N1CCCCC1 > 60 µM, Cc1ccc(C(=O)CN2C(=O)c3ccccc3S2(=O)=O)cc1 > 60 µM, COCC(C)n1c(C)cc(C(=O)Cn2nc(C(=O)O)c3ccccc3c2=O)c1C (stereo not given) > 60 µM, Cc1cc(NC(=O)c2coc(=O)c(Br)c2)ccc1C(C)C > 60 µM, COc1ccc(N(/N=C2\Sc3ccccc3C2=O)C(C)=O)cc1 > 60 µM, COc1ccc(-c2cc3c(=O)n(CC(=O)NCCCN4CCC(Cc5ccccc5)CC4)ncn3n2)cc1, COC(=O)c1ccc(COc2ccc3c(C)c(C)c(=O)oc3c2)o1 > 60 µM, COCCn1c(C)cc(C(=O)Cn2nc(C(=O)O)c3ccccc3c2=O)c1C, O=C(O)c1ccc(NC2=C/C(=N/S(=O)(=O)c3ccccc3)c3ccccc3C2=O)cc1 > 60 µM, Cc1ccc(/C=C2\SC(=S)N(CCCC(=O)Nc3ccccn3)C2=O)cc1 > 60 µM, CCOC(=O)c1csc(NC(=O)c2ccc(OCC)cc2)n1 > 60 µM, Cc1oc(-c2ccc(-c3ccccc3)cc2)nc1CN(C)C1CCOC1 (stereo not given) > 60 µM, C=CCc1ccc(OCc2ccc(C(=O)OC)o2)c(OC)c1 > 60 µM, CC(=O)CSc1nnc(-c2ccc3c(c2)OCO3)o1, CC(=O)c1ccc(N=Nc2c(C)[nH]n(-c3ccccc3)c2=O)cc1 > 60 µM
